Data: patent publication US20100248390A1, “COMPOSITIONS AND METHODS FOR IDENTIFYING LIGANDS OF ODORANT RECEPTORS” (DUKE UNIVERSITY, priority 2009, published 2010)
One block for each molecule: values may come before it.

System: mouse odorant receptors (ORs)
Test: CRE-luciferase assay of odorant receptor activation (Dual-Glo, Hana3A cells, RTP1S), dose-response EC50
Type: cell-based
Details: for log EC50 (Table 4 value), MOR258-17: receptor MOR258-17; for log EC50 (Table 4 value), MOR272-1: receptor MOR272-1; for log EC50 (Table 4 value), MOR273-1: receptor MOR273-1; for log EC50 (Table 4 value), MOR30-1: receptor MOR30-1
Description: Cloning mouse and human ORs. […] OR open reading frames were amplified from genomic DNA using proofreading KOD DNA polymerase (Toyobo/Novagen) and subcloned into pCI expression vectors (Promega) containing the first 20 residues of human rhodopsin (Rho tag). The sequences of the cloned receptors were verified by sequencing (3100 Genetic Analyzer, ABI Biosystems). Immunocytochemistry and FACS analysis. […] For FACS analysis, phycoerythrin (PE)-conjugated anti-mouse IgG (Jackson Immunologicals) was used. In order to monitor the transfection efficiency, Green Fluorescent Protein (GFP) was co-transfected with the OR. The intensity of receptor cell surface expression was calculated as the ratio of PE and GFP expression. 7-aminoactinomycin D (Calbiochem) was added before flow cytometry to mark dead cells which were excluded from the analysis. The gate and mean of PE positive cells was normalized by GFP values. Luciferase assay. […] Odorant receptor activation leads to an increase in intracellular cAMP; CRE-luciferase (Stratagene) was used to measure this change. […] Hana3A cells were plated on poly-D-lysine-coated 96-well plates (BioCoat; Becton Dickinson). […] For each 96-well plate transfected, 1 μg of CRE-Luc, 1 μg of pRL-SV40, 5 μg of odorant receptor plasmid, and 1 μg of RTP1S was used. Approximately 24 hours post transfection, the medium was replaced with CD293 chemically defined medium (Gibco) and the plate was incubed for 30 min at 37° C. The medium was then replaced with 25 μL of odorant solution diluted in CD293 and the plate was incubated for 4 hrs at 37° C. and 5% CO2. The manufacturer's protocols for measuring luciferase and Renilla luciferase activities was followed. […] All luminescence values were divided by the Renilla Luciferase activity to control for transfection efficiency in a given well. Normalized luciferase activity was calculated using the formula (LN−Lmin)/(Lmax−Lmin), where LN is the luminescence of firefly luciferase in response to the odorant, Lmin is the minimum luciferase value on a plate or set of plates, and Lmax is the maximum luciferase value on a plate or set of plates. The data was analyzed using Microsoft Excel and GraphPad Prism 4. Screening procedure. The entire OR library was stimulated with eight separate odorant mixtures formed from 93 odorants (FIG. 12). […] A comparison between the 93 individual odorants at a 100 μM dose and a no-odor control was performed for all 290 […]. Each comparison was performed in triplicate; statistical significance was assessed by t-test (uncorrected for multiple comparisons). […] A single odorant was used on each plate to avoid cross-contamination, and each OR odorant dose was tested at least three times. The data was fit to a sigmoidal curve. […] Physicochemical descriptors. […] Receptor descriptors. […] Correlations between descriptors and responses. […] All odorants for which there were fewer than 3 responsive receptors were eliminated. For all remaining odorant pairs the Pearson correlation between EC50 vectors and the Euclidean distance between descriptor vectors was calculated. The Pearson correlation between these two sets of distances was then measured. Optimizing descriptors. […] In this method one begins with an empty set of descriptors. Each descriptor is combined with the previous set of descriptors and correlation values are computed for all of these candidate sets of descriptors. To reduce overfitting, the data is randomly divided into ten subsets and correlation values are computed for each leave-one out subset. The final correlation coefficient for each set of descriptors is the average of the correlation coefficients for each subset. The set with the best correlation coefficient then becomes the new set of descriptors and the process is repeated until the correlation coefficient increases by less than 0.004 in three consecutive iterations.

log EC50, MOR2-1 (receptor MOR2-1, 0 = no response): −2.982
Compound: CCC(C(=O)O)c1ccccc1 (single isomer, unassigned; (-)) [(−)-2-Phenylbutric acid]

log EC50, MOR41-1 (receptor MOR41-1, 0 = no response): −3.537
Compound: CCCCCO [1-Pentanol]

log EC50, MOR271-1 (receptor MOR271-1, 0 = no response): −5.111
Compound: CCCC(C)=O [2-Penonone]

Compound: O=c1cc(O)c2ccccc2o1 [4-Hydroxycoumarin]
log EC50 (Table 4 value), MOR41-1 (receptor MOR41-1): −4.344

log EC50, MOR107-1 (receptor MOR107-1, 0 = no response): −3.704
log EC50, MOR128-2 (receptor MOR128-2, 0 = no response): −4.373
log EC50, MOR138-1 (receptor MOR138-1, 0 = no response): −4.952
log EC50, MOR139-1 (receptor MOR139-1, 0 = no response): −3.902
log EC50, MOR189-1 (receptor MOR189-1, 0 = no response): −4.839
log EC50, MOR277-1 (receptor MOR277-1, 0 = no response): −3.861
Compound: CC12CCC(CC1=O)C2(C)C (stereo not drawn) [(−)-Camphor]

log EC50 (Table 4 value), MOR258-17: −4.462
Compound: CCCCCOC(=O)CCCCC [Amyl hexanote]

Compound: c1ccccc1 [Benzene]
log EC50 (Table 4 value), MOR271-1 (receptor MOR271-1): −4.005

Compound: O=C1CCCCC1 [Cyclohexanone]
log EC50 (Table 4 value), MOR41-1 (receptor MOR41-1): −3.456
log EC50 (Table 4 value), MOR136-1 (receptor MOR136-1): −3.065
log EC50 (Table 4 value), MOR139-1 (receptor MOR139-1): −3.138
log EC50 (Table 4 value), MOR185-1 (receptor MOR185-1): −3.594
log EC50 (Table 4 value), MOR251-1 (receptor MOR251-1): −3.193
log EC50 (Table 4 value), MOR253-1 (receptor MOR253-1): −3.219
log EC50 (Table 4 value), MOR258-1 (receptor MOR258-1): −3.824
log EC50 (Table 4 value), MOR258-17: −4.1
log EC50 (Table 4 value), MOR271-1 (receptor MOR271-1): −3.463
log EC50 (Table 4 value), MOR272-1: −3.254
log EC50 (Table 4 value), MOR273-1: −3.208
log EC50 (Table 4 value), MOR277-1 (receptor MOR277-1): −3.568

log EC50 (Table 4 value), MOR30-1: −4.033
log EC50 (Table 4 value), MOR37-1 (receptor MOR37-1): −3.477
Compound: CCCCCCCCCC=O [Daconal]

log EC50 (Table 4 value), MOR271-1 (receptor MOR271-1): −4.077
log EC50 (Table 4 value), MOR272-1: −5.25
log EC50 (Table 4 value), MOR273-1: −5.761
Compound: CCOC(=O)C(C)C [Ethyl isobutyrate]

log EC50 (Table 4 value), MOR1-1 (receptor MOR1-1): −3.823
log EC50 (Table 4 value), MOR5-1 (receptor MOR5-1): −3.583
log EC50 (Table 4 value), MOR23-1 (receptor MOR23-1): −4.856
log EC50 (Table 4 value), MOR30-1: −3.575
log EC50 (Table 4 value), MOR31-1 (receptor MOR31-1): −5.2
log EC50 (Table 4 value), MOR33-1 (receptor MOR33-1): −4.148
Compound: CCCCCCC(=O)O [Heptanoic acid]

log EC50 of odorant at MOR1-1 (0 = no response) (receptor MOR1-1): −4.813
Compound: CCCCC(=O)O [Pentanoic acid]

log EC50 of odorant at MOR9-1 (0 = no response) (receptor MOR9-1): −6.334
log EC50 of odorant at MOR15-1 (0 = no response) (receptor MOR15-1): −3.587
Compound: COc1cc(C(=O)O)ccc1O [Vanillic acid]
